For orientation: IC50 means the midpoint of a concentration-inhibition curve.

Assay [1] relates to LTB4 biosynthesis in HL-60 cells. As to the kind of experiment: Assay for LTB4 production by HL-60 cells (LTB4 biosynthesis inhibition). It counts as cell-based. The settings on record: Homo sapiens; differentiated HL-60 cells, 10 min pre-incubation at 37° C., 5×10^-6 M A23187 for 5 minutes, radioimmunoassay; read-out: LTB4 Biosynthesis inhibition (HL60 cells) IC50. As to the method: HL-60 cells were induced to differentiate into granulocytes by a 4 day incubation with 0.8% (v/v) N,N-dimethyl formamide as disclosed in Fontana et al., Proc. Natl. Acad. Sci. 78 (6):3863-3866 (1981); Agins et al., Biochem. Biophys. Res. Comm. 126, 143-149 (1985); and Bonser et al., Biochemistry 20: 5297-5301 (1981). Prior to performing the assay, differentiated HL-60 cells were washed once with Hanks. balanced salt solution containing 0.35 mg/ml sodium bicarbonate and 10 mM HEPES pH 7.35 (HBSS). HL-60 cells (3×10^6 cells/ml) were pre-incubated with the compound tested or a control vehicle at 37° C. for 10 minutes, followed by 5 minute incubation with 5×10^-6 M calcium ionophore A23187 in a final volume of 1.0 ml. After incubation, the cells were pelleted by centrifugation and the LTB4 and PGE2 in the supernatant were quantified by radioimmunoassay. IC50 values (means +/- S.E.) for compounds herein that were tested are shown in the following Table and represent the concentrations of the compound required to inhibit 50% of LTB4 or PGE2 production by HL-60 cells stimulated with the calcium ionophore A23187.

Assay [2] has as its target T1, Human synovial fluid phospholipase A2 (HSF-PLA2) (Homo sapiens, UniProt P14555).
T1 construct: Human synovial fluid phospholipase A2 was purified approximately 5000 fold; from tissue; host or cells: human synovial fluid
T1 sequence (P14555 21-144): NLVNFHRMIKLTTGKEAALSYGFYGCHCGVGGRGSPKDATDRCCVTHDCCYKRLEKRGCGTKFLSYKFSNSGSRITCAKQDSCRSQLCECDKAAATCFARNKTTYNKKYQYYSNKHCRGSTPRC
The experiment in a line: Human synovial fluid phospholipase A2 (HSF-PLA2) assay. It counts as biochemical. The settings on record: [14C]-oleate-labeled E. coli substrate, pH 7.0, 5 min pre-incubation, 37° C., 30 minutes. As to the method:
Human synovial fluid phospholipase A2 was purified approximately 5000 fold following the procedures of Franson et al., Lung 160, 275-284 (1982) and Fawzy et al., Bio Phys. J. 49, 533a (1986). Following purification the enzyme activity was measured by established methodology using [^14 C]-oleate-labeled, autoclaved E. coli as the substrate as also shown in the above noted references. The assay was performed in a final volume of […] containing 50 mM HEPES (pH 7.0), 150 mM NaCl, 5mM CaCl2, 7 mM [14C]-oleate-labeled E. coli phospholipid and with or without the compound from one of the examples herein undergoing an assay. The compound or control vehicle was pre-incubated with the PLA2 for 5 minutes followed by addition of the E. coli substrate to initiate the reaction. The reaction was maintained at 37° C. for 30 minutes and then terminated by the addition of 2 ml tetrahydrofuran (THF). The reaction product, [14C] -oleic acid, was extracted using a 1 ml Bond Elut NH2 Solid phase extraction column. The IC50 value for the compound (mean +/- S.E.) is given in the following Table and represents the concentration of the compound required to inhibit 50% of the PLA2 activity.

As for `CCCCCCCCCCCCC#CC(=O)c1ccc(C(=O)O)cc1` [Example 3], the figures for the concentration for half-maximal inhibition (IC50) in assay [1] and in assay [2] were 0.2 µM and 14 µM, respectively. Taken in the same sequence, the figures for `CCCCCCCCCCCCCC#CC(=O)c1cccc(C(=O)O)c1` [Example 4] were 0.8 µM and 11 µM. On to `CCCCCCCCCCCCCC#CC(=O)c1ccccc1C(=O)O` [Example 6], for which, in assay [2], half-maximal inhibition (IC50) required 13 µM.

As for `CCCCCCCCCCCCCC#CC(O)c1ccc(C(=O)O)o1` (stereo not drawn) [Example 11], the concentration for half-maximal inhibition (IC50) in assay [1] was determined as 2.4 µM; in assay [2], 28 µM.

`CCCCCCCCCCCCCC#CC(=O)c1ccc(C(=O)O)o1` [Example 12]: the IC50 was determined as 0.5 µM in assay [1] and 34 µM in assay [2]. Regarding `CCCCCCCCCCCCCC#CC(=O)c1cccc(C(=O)O)n1` [Example 13], the results for the IC50 in assay [1] and in assay [2] were 0.8 µM and 2.5 µM, respectively. As to `CCCCCCCCCCCCCC#CC(O)c1ccc(O)c(C(=O)O)c1` (stereo not drawn) [Example 16], the half-maximal inhibitory concentration (IC50) in assay [1] was found to be 8 µM; in assay [2] it was 11 µM. Taken in the same sequence, the figures for `CCCCCCCCCCCCCC#CC(=O)c1ccc(O)c(C(=O)O)c1` [Example 17] were 0.4 µM and 33 µM. Compound `CCCCCC#CCCCCCCC#CC(O)c1cccc(C(=O)O)c1` (stereo not drawn) [Example 18] returned a half-inhibitory concentration (IC50) in assay [2] of 28 µM. Take `CCCCCCCCCCCCCC#CC(O)c1ccc(C(=O)O)s1` (stereo not drawn) [Example 24]: the half-maximal inhibitory concentration (IC50) in assay [1] turned out to be 0.9 µM; in assay [2], 18 µM. Taken in the same sequence, the figures for `CCCCCCCCCCCCCC#CC(=O)c1ccc(C(=O)O)s1` [Example 25] were 0.4 µM and 15 µM. For the compound `CCCCCCCCCCCCCC#CC(=O)c1cccc(C(=O)NS(=O)(=O)c2ccccc2)c1` [Example 27], in assay [2], half-maximal inhibition (IC50) required 14 µM. Same read-out and setting: the value for `CCCCCCCCCCCCCC#CC(O)c1cccc(-c2nn[nH]n2)c1` (stereo not drawn) [Example 29] was 42 µM. In the case of `CCCCCCCCCCCCCC#CC(=O)c1cccc(-c2nn[nH]n2)c1` [Example 30], the IC50 in assay [1] was found to be 0.9 µM; in assay [2], 11 µM.

These data come from US5086067A, “LTB4 synthesis inhibitors” (G. D. Searle & Co., priority 1989, dated 1992).
